# Experimental data taken from patent US20160113900A1, “INHIBITORS OF MITOCHONDRIAL STAT3 AND USES THEREOF IN MODULATION OF MAST CELL EXOCYTOSIS” (Yissum Research Development Company of the Hebrew …, priority 2014, published 2016).
# Tests used:
# caspase3 = experiment: Western blot of caspase3 / cleaved caspase3 (apoptosis) in RBL cells; format: cell-based, rat; details: activated RBL cells, 60 μM Stattic
# Protocol: RBL cells and mitochondrial pellets were lysed by the addition of lysis buffer (50 mM Tris-HCl pH 7.4, 1% Nonidet P-40, 0.25% Na-deoxycholate, 150 mM NaCl, 1 mM EDTA, 1 mM PMSF) supplemented with 15 μl protease inhibitor (Sigma-Aldrich). Cells and mitochondria were vortexed and incubated on ice for 15 min. The lysates were then centrifuged at 14,000 g for 15 min and pellets were discarded. The protein concentration of each sample was determined using Bradford Reagent (Sigma-Aldrich). Proteins were resolved by 10-15% SDS-PAGE under reducing conditions and transferred to polyvinylidene difluoride membranes (Millipore Billerica, Ma). The membranes were incubated in 5% fat-free milk and TBST (10 mM Tris-HCl, pH 7.4, 150 mM NaCl, 0.1% Tween 20) for 1 h and then in 5% BSA and TBST containing various dilutions of primary Abs for 18 h at 4° C. The membranes were washed three times with TBST for 5 mM before and after each incubation with secondary Ab. The proteins were detected with the appropriate secondary Ab (1 h; room temperature) coupled to HRP-conjugated goat anti-rabbit or anti-mouse Ab and visualized by chemiluminescence according to the manufacturer's instructions (Pierce).
# [1] = test system: succinate dehydrogenase (SDH, complex 2); experiment: ETC complex activity analysis in treated RBL cells: complex 2; format: cell-based, rat; details: 60 μM Stattic, 30 min
# Protocol: (§1) The enzymatic activities of respiratory chain complexes were measured at 37° C. by standard spectrophotometric methods as previously described5, 6. Briefly, complex II was measured as succinate dehydrogenase (SDH) based on the succinate-mediated phenazine methosulfate reduction of dichloroindophenol at 600 nm Complex 2+3 were measured as succinate cytochrome c reductase and after the reduction of oxidized cytochrome c at 550 nm. Complex 4 (cytochrome c oxidase) was measured by following the oxidation of reduced cytochrome c at 550 nm.
# (§2) Citrate synthase (CS), an ubiquitous mitochondrial matrix enzyme, serving as a control, was measured in the presence of acetylCoA and oxaloacetate by monitoring the liberation of CoASH coupled to 5′,5′-dithiobis(2-nitrobenzoic) acid at 412 nm. Activities are presented as a ratio to CS. Protein concentration was determined by the Lowry method and calculated according to a bovine serum albumin (BSA) standard curve.
# plasma histamine = experiment: In vivo histamine release assay, passive systemic IgE-mediated anaphylaxis model
# Protocol: C3H 6-7 week male and female WT mice were purchased from Jackson Lab (Cambridge, Mass., USA), mice were fed a regular diet and with drinking water ad libitum. Experiments were approved by The Hebrew University Ethical Committee for Animal Experimentation.
# WT C3H mice were sensitized with 3 μg murine IgE anti-DNP mAb SPE-7 by means of intravenous injection in the tail vein. Twenty-four hours later, mice were treated with 40 mg/kg of static dissolved in corn oil or corn oil alone for 2.5 hours, then mice were challenged with i.v. injection of DNP-BSA (250 μg per mouse). 100 μl of blood was collected immediately and added to an equal volume of pre-cold Alsever's Solution. Blood was centrifuged 2000 g for […] and plasma supernatant was collected. Plasma histamine levels were determined by using competitive ELISA (IBL International Gmbh, Hamburg, Germany).
# STAT3's role in vivo was investigated by evaluating the response to allergic stimulation in Stattic-treated mice. The passive systemic IgE-mediated anaphylaxis model was used. Mice were injected (i.v.) with IgE anti-DNP. Twenty four hours later they were injected (i.p.) with Stattic (80 mg/kg) or corn oil which was used as control. Three and a half hours later the mice were challenged with DNP-BSA for 1.5 minutes. Plasma was collected, and histamine levels were measured by competitive ELISA. Histamine secretion in Stattic-treated mice was 43% less than that in control mice (FIG. 17, p<0.05).
# Mitocur-1/3 effectiveness in vivo was investigated by evaluating the response to allergic stimulation in Mitocur-1/3-treated mice. The passive systemic IgE-mediated anaphylaxis model was used. Mice were injected (i.v.) with IgE anti-DNP. Twenty four hours later they were injected (i.p.) with Mitocur-1 (80 mg/kg) and Mitocur-3 (40 mg/kg). Corn oil was used as control. Three and a half hours later the mice were challenged with DNP-BSA for 1.5 minutes. Plasma was collected, and histamine levels were measured by competitive ELISA. Histamine secretion in Mitocur-1-treated mice was 35% less than that in control mice (FIG. 22A, p<0.05).
# RBL cells [2] = experiment: TNF-α secretion of activated RBL cells; format: cell-based, rat; details: RBL cells, IgE/DNP-BSA, 60 μM Stattic 20 min
# RBL cells [3] = experiment: ATP determination (ATPLite luminescence) in RBL cells; format: cell-based, rat; details: RBL cells, 60 μM Stattic, 20 min
# Protocol: (§3) RBL-2H3 cells were maintained in RPMI 1640 medium as previously described1. Bone marrow was isolated from 5-6 week-old mice, and BMMC were cultured in RPMI medium supplemented with 20 ng/ml interleukin-3 (IL-3) and 20 ng/ml SCF as previously described2, 3. Cells were generally grown for a minimum of 4 weeks and used when >90% of the population expressed FcεRI. BMMC and RBL cells were sensitized first with anti-DNP IgE monoclonal antibody (SPE-7; Sigma-Aldrich Corp.) and then challenged with DNP-BSA (Sigma-Aldrich Corp.). IgE antibody was centrifuged (18,000 g, 5 min) before use to remove aggregates. […] For glycolysis elimination cells were maintained in glucose-free RPMI supplemented with 10% dialyzed fetal calf serum and 5 mM galactose.
# (§4) ATP levels were measured using the ATPLite luminescence-based assay according to the manufacturer's instructions (Perkin Elmer, Waltham, Mass., USA).
# RBL cells [4] = experiment: Oxygen consumption (Seahorse XF analyzer) in RBL cells; format: cell-based, rat; details: RBL cells, 60 μM Stattic, 20 min
# Protocol: as §3
# Oxygen consumption rate (OCR) was measured using an XF24 extracellular flux analyzer (Seahorse Biosciences, North Billeric, Mass., USA).
# [5] = test system: cytochrome c oxidase (COX, complex 4); experiment: ETC complex activity analysis in treated RBL cells: complex 4; format: cell-based, rat; details: 60 μM Stattic, 30 min
# Protocol: as §1, §2
# CBMC = experiment: β-Hexosaminidase release assay (degranulation) in human cord blood-derived mast cells; format: cell-based; details: 60 μM Stattic 5 min before α-human-IgE, control cells 20.9±4.9
# BMMC = experiment: ATP determination (ATPLite luminescence) in BMMC; format: cell-based, mouse; details: 60 μM Stattic, 20 min
# Protocol: as §3, §4
compound,measurement,setting,value
"O=[N+]([O-])c1ccc2c(c1)S(=O)(=O)C=C2 [Stattic, 6-Nitrobenzo[b]thiophene 1,1-dioxide, reference compound]",caspase3 levels (apoptosis),caspase3,no change
same,"change in succinate dehydrogenase (SDH, complex 2) activity",[1],No significant change
same,histamine secretion less than in control mice,"plasma histamine; Stattic 80 mg/kg i.p., 3.5 h before DNP-BSA challenge",43%
same,decrease in histamine secretion,"plasma histamine; mice, Stattic 40 mg/kg, after two and a half hours (data not shown)",32.4%
same,TNF-α secretion,RBL cells [2],completely abolished
same,reduction in ATP levels,RBL cells [3],72.0±9.0%
same,reduction in oxygen consumption,RBL cells [4],18.6±8.3%
same,"change in cytochrome c oxidase (COX, complex 4) activity",[5],No significant change
same,degranulation (β-hexosaminidase release),CBMC,3.5±1.9
same,reduction in ATP levels,BMMC,76.4±9.3%
